Legend:
Assay type in all cases: in vivo
[1] = tested on: pigweed (Amaranthus retroflexus); test: Test A postemergence, visual plant response rating; conditions: for Pigweed plant response rating (0 to 100 scale): 500 g ai/ha, postemergence, 0 is no effect, 100 is complete control; for Pigweed plant response rating: Postemergence, 125 g ai/ha, 0 to 100 scale (0 no effect, 100 complete control)
How it was run: (§1)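 Ratings use a 0–100 visual scale (100 = complete control) against untreated controls, scored about 10 days after greenhouse treatment. Test chemicals were formulated in surfactant-containing non-phytotoxic solvent and applied either as soil spray after planting (preemergence) or onto one- to two-leaf, 2–10 cm plants (postemergence).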

[2] = tested on: blackgrass (Alopecurus myosuroides); test: Test A postemergence, visual plant response rating; conditions: for Blackgrass plant response rating (0 to 100 scale): 500 g ai/ha, postemergence, 0 is no effect, 100 is complete control; for Blackgrass plant response rating: Postemergence, 125 g ai/ha, 0 to 100 scale (0 no effect, 100 complete control)
How it was run: as §1

[3] = tested on: barnyardgrass (Echinochloa crus-galli); test: Test A postemergence, visual plant response rating; conditions: for Barnyardgrass plant response rating (0 to 100 scale): 500 g ai/ha, postemergence, 0 is no effect, 100 is complete control; for Barnyardgrass plant response rating: Postemergence, 125 g ai/ha, 0 to 100 scale (0 no effect, 100 complete control)
How it was run: as §1

kochia (Kochia scoparia) [4] = test: Test A postemergence, visual plant response rating; conditions: for Kochia plant response rating (0 to 100 scale): 500 g ai/ha, postemergence, 0 is no effect, 100 is complete control; for Kochia plant response rating: Postemergence, 125 g ai/ha, 0 to 100 scale (0 no effect, 100 complete control)
How it was run: as §1

[5] = tested on: Italian ryegrass (Lolium multiflorum); test: Test A postemergence, visual plant response rating; conditions: for Ryegrass, Italian plant response rating (0 to 100 scale): 500 g ai/ha, postemergence, 0 is no effect, 100 is complete control; for Ryegrass, Italian plant response rating: Postemergence, 125 g ai/ha, 0 to 100 scale (0 no effect, 100 complete control)
How it was run: as §1

[6] = tested on: foxtail, green (green foxtail, Setaria viridis); test: Test A postemergence, visual plant response rating; conditions: for Foxtail, Green plant response rating (0 to 100 scale): 500 g ai/ha, postemergence, 0 is no effect, 100 is complete control; for Foxtail, Green plant response rating: Postemergence, 125 g ai/ha, 0 to 100 scale (0 no effect, 100 complete control)
How it was run: as §1

[7] = tested on: galium (catchweed bedstraw, Galium aparine); test: Test A postemergence, visual plant response rating; conditions: for Galium plant response rating (0 to 100 scale): 500 g ai/ha, postemergence, 0 is no effect, 100 is complete control; for Galium plant response rating: Postemergence, 125 g ai/ha, 0 to 100 scale (0 no effect, 100 complete control)
How it was run: as §1

[8] = tested on: wheat (Triticum aestivum); test: Test A postemergence, visual plant response rating; conditions: for Wheat plant response rating (0 to 100 scale): 500 g ai/ha, postemergence, 0 is no effect, 100 is complete control; for Wheat plant response rating: Postemergence, 125 g ai/ha, 0 to 100 scale (0 no effect, 100 complete control)
How it was run: as §1

corn (Zea mays) = test: Test A postemergence, visual plant response rating; conditions: for Corn plant response rating (0 to 100 scale): 500 g ai/ha, postemergence, 0 is no effect, 100 is complete control; for Corn plant response rating: Postemergence, 125 g ai/ha, 0 to 100 scale (0 no effect, 100 complete control)
How it was run: as §1

[9] = tested on: ragweed (common ragweed, Ambrosia elatior); test: Test A postemergence, visual plant response rating; conditions: for Ragweed plant response rating (0 to 100 scale): 500 g ai/ha, postemergence, 0 is no effect, 100 is complete control; for Ragweed plant response rating: Postemergence, 125 g ai/ha, 0 to 100 scale (0 no effect, 100 complete control)
How it was run: as §1

rice (Oryza sativa) = test: Test B flooded paddy test, visual plant response rating; conditions: 250 g ai/ha, Flood, applied to paddy water, 2-leaf stage, evaluated after 13 to 15 days
How it was run: (§2)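 2-leaf plants; pots flooded 3 cm over soil surface; compound dosed straight into the floodwater; depth kept constant; greenhouse 13–15 d; visual rating vs. untreated controls.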

[10] = tested on: barnyardgrass (Echinochloa crus-galli); test: as above; conditions: 250 g ai/ha, Flood, applied to paddy water, 2-leaf stage, evaluated after 13 to 15 days
How it was run: as §2

[11] = tested on: sedge, umbrella (small-flower umbrella sedge, Cyperus difformis); test: as above; conditions: 250 g ai/ha, Flood, applied to paddy water, 2-leaf stage, evaluated after 13 to 15 days
How it was run: as §2

[12] = tested on: ducksalad (Heteranhera limosa); test: as above; conditions: 250 g ai/ha, Flood, applied to paddy water, 2-leaf stage, evaluated after 13 to 15 days
How it was run: as §2

[13] = tested on: pigweed (Amaranthus retroflexus); test: Test A preemergence, visual plant response rating; conditions: approx. 10 days
How it was run: as §1

[14] = tested on: barnyardgrass (Echinochloa crus-galli); test: Test A preemergence, visual plant response rating; conditions: approx. 10 days
How it was run: as §1

kochia (Kochia scoparia) [15] = test: Test A preemergence, visual plant response rating; conditions: approx. 10 days
How it was run: as §1

[16] = tested on: Italian ryegrass (Lolium multiflorum); test: Test A preemergence, visual plant response rating; conditions: approx. 10 days
How it was run: as §1

[17] = tested on: foxtail, green (green foxtail, Setaria viridis); test: Test A preemergence, visual plant response rating; conditions: approx. 10 days
How it was run: as §1

[18] = tested on: ragweed (common ragweed, Ambrosia elatior); test: Test A preemergence, visual plant response rating; conditions: approx. 10 days
How it was run: as §1

| SMILES | Pigweed plant response rating (0 to 100 scale) [1] | Pigweed plant response rating [1] | Blackgrass plant response rating (0 to 100 scale) [2] | Blackgrass plant response rating [2] | Barnyardgrass plant response rating (0 to 100 scale) [3] | Barnyardgrass plant response rating [3] | Kochia plant response rating (0 to 100 scale) (kochia (Kochia scoparia) [4]) | Kochia plant response rating (kochia (Kochia scoparia) [4]) | Ryegrass, Italian plant response rating (0 to 100 scale) [5] | Ryegrass, Italian plant response rating [5] | Foxtail, Green plant response rating (0 to 100 scale) [6] | Foxtail, Green plant response rating [6] | Galium plant response rating (0 to 100 scale) [7] | Galium plant response rating [7] | Wheat plant response rating (0 to 100 scale) [8] | Wheat plant response rating [8] | Corn plant response rating (0 to 100 scale) (corn (Zea mays)) | Corn plant response rating (corn (Zea mays)) | Ragweed plant response rating (0 to 100 scale) [9] | Ragweed plant response rating [9] | other results |
| --- | --- | --- | --- | --- | --- | --- | --- | --- | --- | --- | --- | --- | --- | --- | --- | --- | --- | --- | --- | --- | --- |
| CON=C(c1ccccc1Cl)c1c(O)c(C)nn(C)c1=O (stereo in doubt) [Compound 29] | 50 | 40 | 70 | 20 | 20 | 0 | 30 | 10 | 90 | 30 | 20 | 0 | 80 | 70 | 20 | 20 | 10 | 0 | 70 | 60 | Plant response rating, Rice (0 to 100 scale, 0 is no effect, 100 is complete control) (rice (Oryza sativa)): 0; Plant response rating, Barnyardgrass (0 to 100 scale, 0 is no effect, 100 is complete control) [10]: 0; Plant response rating, Sedge, Umbrella (0 to 100 scale, 0 is no effect, 100 is complete control) [11]: 0; Plant response rating, Ducksalad (0 to 100 scale, 0 is no effect, 100 is complete control) [12]: 0; Pigweed plant response rating (0 to 100 scale) ([13]; 125 g ai/ha Preemergence): 0; Pigweed plant response rating (0 to 100 scale) ([13]; 500 g ai/ha Preemergence): 20; Barnyardgrass plant response rating (0 to 100 scale) ([14]; 125 g ai/ha Preemergence): 30; Barnyardgrass plant response rating (0 to 100 scale) ([14]; 500 g ai/ha Preemergence): 50; Kochia plant response rating (0 to 100 scale) (kochia (Kochia scoparia) [15]; 125 g ai/ha Preemergence): 0; Kochia plant response rating (0 to 100 scale) (kochia (Kochia scoparia) [15]; 500 g ai/ha Preemergence): 10; Ryegrass, Italian plant response rating (0 to 100 scale) ([16]; 125 g ai/ha Preemergence): 20; Ryegrass, Italian plant response rating (0 to 100 scale) ([16]; 500 g ai/ha Preemergence): 70; Foxtail, Green plant response rating (0 to 100 scale) ([17]; 125 g ai/ha Preemergence): 30; Foxtail, Green plant response rating (0 to 100 scale) ([17]; 500 g ai/ha Preemergence): 50; Ragweed plant response rating (0 to 100 scale) ([18]; 125 g ai/ha Preemergence): 30; Ragweed plant response rating (0 to 100 scale) ([18]; 500 g ai/ha Preemergence): 90 |
| CCO/N=C(\c1ccccc1C)c1c(O)c(C)nn(C)c1=O [Compound 14] | 80 | 20 | 60 | 30 | 40 | 20 | 50 | 20 | 60 | 60 | 40 | 20 | 90 | 90 | 0 | 0 | 10 | 0 | 70 | 60 | Plant response rating, Rice (0 to 100 scale, 0 is no effect, 100 is complete control) (rice (Oryza sativa)): 0; Plant response rating, Barnyardgrass (0 to 100 scale, 0 is no effect, 100 is complete control) [10]: 0; Plant response rating, Sedge, Umbrella (0 to 100 scale, 0 is no effect, 100 is complete control) [11]: 0; Plant response rating, Ducksalad (0 to 100 scale, 0 is no effect, 100 is complete control) [12]: 0; Pigweed plant response rating (0 to 100 scale) ([13]; 125 g ai/ha Preemergence): 0; Pigweed plant response rating (0 to 100 scale) ([13]; 500 g ai/ha Preemergence): 50; Barnyardgrass plant response rating (0 to 100 scale) ([14]; 125 g ai/ha Preemergence): 40; Barnyardgrass plant response rating (0 to 100 scale) ([14]; 500 g ai/ha Preemergence): 80; Kochia plant response rating (0 to 100 scale) (kochia (Kochia scoparia) [15]; 125 g ai/ha Preemergence): 0; Kochia plant response rating (0 to 100 scale) (kochia (Kochia scoparia) [15]; 500 g ai/ha Preemergence): 20; Ryegrass, Italian plant response rating (0 to 100 scale) ([16]; 125 g ai/ha Preemergence): 20; Ryegrass, Italian plant response rating (0 to 100 scale) ([16]; 500 g ai/ha Preemergence): 90; Foxtail, Green plant response rating (0 to 100 scale) ([17]; 125 g ai/ha Preemergence): 20; Foxtail, Green plant response rating (0 to 100 scale) ([17]; 500 g ai/ha Preemergence): 70; Ragweed plant response rating (0 to 100 scale) ([18]; 125 g ai/ha Preemergence): 80; Ragweed plant response rating (0 to 100 scale) ([18]; 500 g ai/ha Preemergence): 80 |
